Assay results published in patent US20230365673A1, “MEANS FOR REDUCING RADIO- AND CHEMOTHERAPY RESISTANCE AND ADVERSE EFFECTS” (JOHANN WOLFGANG GOETHE-UNIVERSITÄT FRANKFURT AM MAIN, priority 2020, published 2023).

Test system: APTKA orthotopic tumours
Assay: Orthotopic APTKA organoid rectal cancer model with local fractionated radiotherapy (5×2 Gy)
Type: in vivo, C57BL/6 mice
Description: (A and B) Schematic representation of the orthotopic transplantation of APTKA & APTK mouse organoids into C57BL/6 mice followed by local fractionated radiotherapy (5×2 Gy) of established tumours and end point colonoscopy 21 days after the last irradiation. (C) Heat map analysis of RNA sequencing data of APTKA (n=4) and APTK (n=5) orthotopic tumours. (D) GSEA of CAF signature using RNA sequencing data of APTKA and APTK orthotopic tumours. Significant NES≤−1; FDR q-value<0.05. (E) H&E stained sections of APTK and APTKA untreated and irradiated orthotopic tumours 21 days after last irradiation. Scale bars=500 μm. (F and G) Overall tumour (mm3) and invasive area (%) of untreated (n=5) and irradiated (n=6) APTK orthotopic tumours. Data are mean±SD. *** p<0.001 and **** p<0.0001 by t-test. (H and I) Overall tumour (mm3) and invasive area (%) of untreated (n=5) and irradiated (n=5) APTKA orthotopic tumours. ** p<0.01 by t-test. Data are mean±SD. (J) Frequency of mice with liver metastasis in untreated or irradiated APTKA orthotopic tumours (n=5 mice per group). (K) H&E staining of untreated and irradiated APTKA orthotopic tumours. Scale bars=300 μm. Representative images of αSMA (Green), Vimentin (Blue) and Collagen (Yellow) multiplex immunofluorescence of untreated and irradiated APTKA tumours. Scale bars=400 μm. Sirius red staining of APTKA orthotopic tumours upon radiotherapy. Scale bars=300 μm. (L) Percent of αSMA, Vim and Col1 triple positive cells in untreated (n=9) and irradiated (n=10) APTKA tumours. Data are mean±SD. ** p<0.01 by t-test. (M) Sirius red pixel positivity in untreated (n=7) and irradiated (n=6) APTKA tumours. Data are mean±SD. * p<0.05 by t-test. (N-P) Ex vivo irradiation (5×2Gy) of APTKA and APTK organoids: (N) relative fluorescent units of untreated and irradiated organoids, 6 h post last dose, using resazurin cell viability kit (n=4 independent wells per condition); (O) quantification of the number of fully grown untreated and irradiated organoids 4 days' post first reseeding (n=7 to 9 independent wells per condition); (P) subcutaneous tumour growth in C57BL/6 mice transplanted with untreated or irradiated organoids. Data are mean±SD. N=6 mice per group; p<0.05 by one-way ANOVA followed by Tukey's multiple comparisons test. Representative results from one experiment which has been independently repeated least 3 times.
(A) Schematic representation of the orthotopic transplantation of APTKA mouse organoids into C57BL/6 mice followed by 5×2 Gy radiotherapy of established tumours untreated or treated daily with anakinra (500 μg/day) for 21 days. (B and C) Overall tumour size (mm3) and % invasive area of 5×2Gy radiated APTKA orthotopic tumours 21 days after last irradiation without (n=5) or with (n=4) anakinra treatment (500 μg/day). Data are mean±SD; p<0.05 by t-test. (D) Frequency of mice with liver metastasis upon irradiation of APTKA orthotopic tumours without (n=5) or with (n=4) anakinra treatment (500 μg/day). (E and F) Sirius red staining of untreated (n=3) or anakinra treated (n=4) 5×2 Gy irradiated APTKA tumours. Scale bars=200 μm. Data are mean±SD. *** p<0.001 by t-test. (G, H) αSMA immunofluorescent staining and its quantification of irradiated APTKA orthotopic tumours without (n=5) or with (n=4) anakinra treatment (500 μg/day). Scale bars=200 μm. Data are mean±SD; p<0.05 by t-test. (I) Schematic representation of IL-1α overexpression in APTK organoids by CRISPRa/Cas9. (J) ELISA of IL-1α protein levels in conditioned media from APTK sgctrl and APTK sgIL-1α organoids (n=4 independent wells per group). Data are mean±SD. **** p<0.0001 by t-test. (K) Relative RNA expression of inflammatory genes in fibroblasts treated with conditioned media from APTK sgctrl and APTK sgIL-1α organoids for 24 h (n=5 independent wells per condition). Data are mean±SD. **** p<0.0001 by t-test. Representative results from one experiment which has been independently repeated 2 times. […]

[1] = anakinra 500 μg/day plus 5×2 Gy
[2] = anakinra 500 μg/day plus 5×2 Gy, 21 days after last irradiation

Substance: anakinra: Kineret®, an interleukin-1 receptor antagonist
- APTKA tumour growth (anakinra 500 μg/day alone, no irradiation, data not shown): did not affect APTKA tumour growth significantly
- metastasis formation (liver) [1]: blocked metastasis formation
- number of αSMA+ cells [1]: decreased number of αSMA+cells
- sirius red staining [1]: significant decrease in sirius red staining
- invasion (% invasive area) [2]: marked reduction in tumour size and invasion
- tumour size [2]: marked reduction in tumour size
